By Emax is commonly meant the greatest response seen or fitted, relative to the assay's reference. The EC50 is the concentration that produces a half-maximal response. Low readings indicate greater potency, high ones weaker potency.

This note sets out measurements from patent US20230061736A1, “GPR119 AGONISTS” (Kallyope, Inc., priority 2019, published 2023).

This test addresses T1, human GPR119 (hGPR119) (Homo sapiens, UniProt Q8TDV5).
T1 construct: expressed in transfected cells
T1 sequence (Q8TDV5 1-335): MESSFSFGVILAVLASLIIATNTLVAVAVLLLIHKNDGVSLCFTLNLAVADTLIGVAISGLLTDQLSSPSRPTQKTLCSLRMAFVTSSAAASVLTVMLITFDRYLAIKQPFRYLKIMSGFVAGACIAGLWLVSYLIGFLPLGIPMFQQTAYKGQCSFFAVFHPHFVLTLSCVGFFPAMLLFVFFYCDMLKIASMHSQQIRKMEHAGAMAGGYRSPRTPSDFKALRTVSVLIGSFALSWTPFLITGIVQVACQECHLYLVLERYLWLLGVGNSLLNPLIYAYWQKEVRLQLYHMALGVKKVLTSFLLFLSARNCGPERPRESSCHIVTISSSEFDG
In words: cAMP accumulation assay (cAMP Gs dynamic HTRF kit). The test is classed as cell-based. The settings on record: CHO-K1 cells stably expressing hGPR119, 4-parameter fit; for Emax: 1 h, % activity normalized to Max/Min controls; for EC50: cAMP accumulation. In outline: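 Read-out is HTRF 665/620 nm ratio after 1 h detection at ambient temperature, converted to % activity against positive and negative controls, EC50 and Max activity by 4-parameter fit. Compounds were titrated onto ~10,000 thawed hGPR119-CHO-K1 cells/well for 60 min at 37° C/5% CO2.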
(In general: Changes in cAMP serve as a functional read-out for many G protein-coupled receptors.)

As for `NCCOCCOCCNCC1CN(C(=O)Cc2ccc(OCCCC3CCN(c4ncc(Cl)cn4)CC3)cc2F)C1` [Example 52, 1-[3-[[2-[2-(2-aminoethoxy)ethoxy]ethylamino]methyl]azetidin-1-yl]-2-[4-[3-[1-(5-chloropyrimidin-2-yl)-4-piperidyl]propoxy]-2-fluoro-phenyl]ethanone], the Emax fell in the range of 100 to 130% and the EC50 fell in the range of 100 to 1000 nM.

In turn, `O=C(Cc1ccc(OCCCC2CCN(c3ncc(Cl)cn3)CC2)cc1F)NCCCCC(=O)NC(CO)CO` [Example 23, 5-[[2-[4-[3-[1-(5-chloropyrimidin-2-yl)-4-piperidyl]propoxy]-2-fluoro-phenyl]acetyl]amino]-N-[2-hydroxy-1-(hydroxymethyl)ethyl]pentanamide] gave an Emax of at least 130% and an EC50 of 100 to 1000 nM.

Regarding `O=C(Cc1ccc(OCCCCC2CCN(c3ncc(Cl)cn3)CC2)cc1F)N1CC(CNC[C@H](O)[C@@H](O)[C@H](O)[C@H](O)CO)C1` [Example 54, 2-[4-[4-[1-(5-chloropyrimidin-2-yl)-4-piperidyl]butoxy]-2-fluoro-phenyl]-1-[3-[[[(2S,3R,4R,5R)-2,3,4,5,6-pentahydroxyhexyl]amino]methyl]azetidin-1-yl]ethanone], the Emax is at least 130% and the EC50 lay in the range of 100 to 1000 nM.

`CCc1cnc(N2CCC(CCCOc3cc(F)c(CC(=O)NC(CO)(CO)CO)c(F)c3)CC2)nc1` [Example 7, 2-[4-[3-[1-(5-ethylpyrimidin-2-yl)-4-piperidyl]propoxy]-2,6-difluoro-phenyl]-N-[2-hydroxy-1,1-bis(hydroxymethyl)ethyl]acetamide] gave a maximal effect (Emax) of 100 to 130% and an EC50 of at most 100 nM.

As for `CCOc1cnc(N2CCC(CCCOc3cc(F)c(CC(=O)N4CC[C@@H](CNCC(O)(CO)CO)C4)c(F)c3)CC2)nc1` [Example 156, 2-[4-[3-[1-(5-ethoxypyrimidin-2-yl)-4-piperidyl]propoxy]-2,6-difluoro-phenyl]-1-[(3S)-3-[[[2,3-dihydroxy-2-(hydroxymethyl)propyl]amino]methyl]pyrrolidin-1-yl]ethanone], the Emax was at least 130% and the EC50 is at most 100 nM.

`O=C(Cc1ccc(OCCCC2CCN(c3ncc(Cl)cn3)CC2)cc1F)NCCS(=O)(=O)O` [Example 10, 2-[[2-[4-[3-[1-(5-chloropyrimidin-2-yl)-4-piperidyl]propoxy]-2-fluoro-phenyl]acetyl]amino]ethanesulfonic acid] registered an Emax of at least 130% and an EC50 of 1000 to 10000 nM.

Turning to `COCc1cnc(N2CCC(CCCOc3cc(F)c(CC(=O)N4CC[C@@H](CNCC(O)(CO)CO)C4)c(F)c3)CC2)nc1` [Example 159, 2-[2,6-difluoro-4-[3-[1-[5-(methoxymethyl)pyrimidin-2-yl]-4-piperidyl]propoxy]phenyl]-1-[(3S)-3-[[[2,3-dihydroxy-2-(hydroxymethyl)propyl]amino]methyl]pyrrolidin-1-yl]ethanone], the Emax was 100 to 130% and the EC50 was at most 100 nM.

Turning to `COCc1cnc(N2CCC(CCCOc3ccc(CC(=O)N4CC(CNCC[C@@H](O)C[C@@H](O)CC(=O)O)C4)c(F)c3)CC2)nc1` [Example 82, (3R,5R)-7-[[1-[2-[2-fluoro-4-[3-[1-[5-(methoxymethyl)pyrimidin-2-yl]-4-piperidyl]propoxy]phenyl]acetyl]azetidin-3-yl]methylamino]-3,5-dihydroxy-heptanoicacid], the Emax was 50 to 100% and the EC50 is 100 to 1000 nM.

`CCCc1cnc(N2CCC(CCCOc3cc(F)c(CC(=O)N4CC(CNC[C@H](O)[C@@H](O)[C@H](O)[C@H](O)CO)C4)c(F)c3)CC2)nc1` [Example 78, 2-(2,6-difluoro-4-(3-(1-(5-propylpyrimidin-2-yl)piperidin-4-yl)propoxy)phenyl)-1-(3-((((2S,3R,4R,5R)-2,3,4,5,6-pentahydroxyhexyl)amino)methyl)azetidin-1-yl)ethan-1-one] gave an Emax of 100 to 130% and an EC50 of at most 100 nM.

Take `O=C(Cc1ccc(COCC2CC3(CCN(c4ncc(Cl)cn4)CC3)C2)cc1F)N1CC(CNC[C@H](O)[C@@H](O)[C@H](O)[C@H](O)CO)C1` [Example 107]: the Emax is 100 to 130% and the EC50 was in the range of 1000 to 10000 nM.

The compound `O=C(Cc1ccc(OCCCC2CCN(c3ncc(Cl)cn3)CC2)cc1F)NCCCS(=O)(=O)O` [Example 11, 3-[[2-[4-[3-[1-(5-chloropyrimidin-2-yl)-4-piperidyl]propoxy]-2-fluoro-phenyl]acetyl]amino]propane-1-sulfonic acid] showed an Emax of at least 130% and a concentration for a half-maximal effect (EC50) of 1000 to 10000 nM.

Regarding `O=C(Cc1ccc(OCCCC2CCN(c3ncc(Cl)cn3)CC2)cc1F)NCCCCCC(=O)NC(CO)(CO)CO` [Example 18, 6-[[2-[4-[3-[1-(5-chloropyrimidin-2-yl)-4-piperidyl]propoxy]-2-fluoro-phenyl]acetyl]amino]-N-[2-hydroxy-1,1-bis(hydroxymethyl)ethyl]hexanamide], the maximal effect (Emax) is 100 to 130% and the EC50 was 100 to 1000 nM.

As to `O=C(Cc1ccc(OCCCC2CCN(c3ncc(Cl)cn3)CC2)cc1F)N1CC[C@H](CNC[C@H](O)[C@@H](O)[C@H](O)[C@H](O)CO)C1` [Example 100, 2-[4-[3-[1-(5-chloropyrimidin-2-yl)-4-piperidyl]propoxy]-2-fluoro-phenyl]-1-[(3R)-3-[[[(2S,3R,4R,5R)-2,3,4,5,6-pentahydroxyhexyl]amino]methyl]pyrrolidin-1-yl]ethanone], the Emax lay within 100 to 130% and the EC50 was at most 100 nM.

As for `CCOc1cnc(N2CCC(CCCOc3cc(F)c(CC(=O)N4CCC(O)(CNCC(CO)(CO)CO)C4)c(F)c3)CC2)nc1` (stereo not drawn) [Example 189, 2-[4-[3-[1-(5-ethoxypyrimidin-2-yl)-4-piperidyl]propoxy]-2,6-difluoro-phenyl]-1-[3-hydroxy-3-[[[3-hydroxy-2,2-bis(hydroxymethyl)propyl]amino]methyl]pyrrolidin-1-yl]ethanone], the Emax was in the range of 100 to 130% and the EC50 was at most 100 nM.

`COCc1cnc(N2CCC(CCCOc3cc(F)c(CC(=O)N4CC[C@@H](CNC(CO)(CO)CO)C4)c(F)c3)CC2)nc1` [Example 158, 2-[2,6-difluoro-4-[3-[1-[5-(methoxymethyl)pyrimidin-2-yl]-4-piperidyl]propoxy]phenyl]-1-[(3S)-3-[[[2-hydroxy-1,1-bis(hydroxymethyl)ethyl]amino]methyl]pyrrolidin-1-yl]ethanone]: the Emax fell in the range of 100 to 130% and the EC50 was at most 100 nM.

In the case of `O=C(Cc1c(F)cc(OCCCC2CCN(C(=O)OC3(C(F)(F)F)COC3)CC2)cc1F)N1CC(CNC[C@H](O)[C@@H](O)[C@H](O)[C@H](O)CO)C1` [Example 126, [3-(trifluoromethyl)oxetan-3-yl] 4-[3-[3,5-difluoro-4-[2-oxo-2-[3-[[[(2S,3R,4R,5R)-2,3,4,5,6-pentahydroxyhexyl]amino]methyl]azetidin-1-yl]ethyl]phenoxy]propyl] piperidine-1-carboxylate], the maximal response (Emax) lay within 100 to 130% and the EC50 was in the range of 100 to 1000 nM.

Turning to `CC1(OC(=O)N2CCC(CCCOc3ccc(CC(=O)N4CC(CNC[C@H](O)[C@@H](O)[C@H](O)[C@H](O)CO)C4)c(F)c3)CC2)CC1` (racemic) [Example 119, (1-methylcyclopropyl) 4-[3-[3-fluoro-4-[2-oxo-2-[3-[[[rac-(2S,3R,4R,5R)-2,3,4,5,6-pentahydroxyhexyl]amino]methyl]azetidin-1-yl]ethyl]phenoxy]propyl]piperidine-1-carboxylate], the Emax fell in the range of 100 to 130% and the EC50 is 100 to 1000 nM.

For `O=C(Cc1ccc(OCCCC2CCN(c3ncc(Cl)cn3)CC2)cc1F)N1CC(CN2C[C@@H](O)[C@@H](O)C2)C1` [Example 48, 2-[4-[3-[1-(5-chloropyrimidin-2-yl)-4-piperidyl]propoxy]-2-fluoro-phenyl]-1-[3-[[rac-(3S,4R)-3,4-dihydroxypyrrolidin-1-yl]methyl]azetidin-1-yl]ethanone], the Emax was 100 to 130% and the EC50 was at most 100 nM.

For `O=C(Cc1ccc(OCCCC2CCN(c3ncc(Cl)cn3)CC2)cc1F)N1CC(CNC[C@H](O)[C@@H](O)[C@H](O)CO)C1` [Example 166, 2-[4-[3-[1-(5-chloropyrimidin-2-yl)-4-piperidyl]propoxy]-2-fluoro-phenyl]-1-[3-[[[(2S,3R,4R)-2,3,4,5-tetrahydroxypentyl]amino]methyl]azetidin-1-yl]ethanone], the Emax is 100 to 130% and the EC50 was at most 100 nM.

Compound `O=C(Cc1ccc(OCCCC2CCN(c3ncc(Cl)cn3)CC2)cc1F)N1CC(O)(CNC[C@H](O)[C@H](O)[C@H](O)CO)C1` [Example 185, 2-[4-[3-[1-(5-chloropyrimidin-2-yl)-4-piperidyl]propoxy]-2-fluoro-phenyl]-1-[3-hydroxy-3-[[[(2S,3S,4R)-2,3,4,5-tetrahydroxypentyl]amino]methyl]azetidin-1-yl]ethanone] came in with an Emax of 100 to 130% and an EC50 of at most 100 nM.

`O=C(Cc1ccc(OCCCC2CCN(c3ncc(Cl)cn3)CC2)cc1F)N1CCC(O)(CNCC(CO)(CO)CO)CC1` [Example 183, 2-[4-[3-[1-(5-chloropyrimidin-2-yl)-4-piperidyl]propoxy]-2-fluoro-phenyl]-1-[4-hydroxy-4-[[[3-hydroxy-2,2-bis (hydroxymethyl)propyl]amino]methyl]-1-piperidyl]ethanone] registered an Emax of 100 to 130% and an EC50 of at most 100 nM.
